Test results: patent publication US11547655B2, “Use of an extract of the pericarp of Nephelium lappaceum for hydrating the skin and/or mucous membranes” (BASF Beauty Care Solutions France S.A.S., priority 2017, dated 2023)

Test system: involucrin
Test: Involucrin synthesis in normal human keratinocytes, ELISA assay
Assay type: cell-based
Details: for MEAN (% involucrin detected): relative to the control, n=3; for stimulation of involucrin synthesis: at the concentrations tested, corresponding to those present in the cosmetic ingredient of example 4
Protocol: Normal, that is to say non-pathological, human keratinocytes were cultured in an MCDB153 medium (Dutscher France) containing 2% of fetal calf serum. After culture for 3 days at 37° C., the growth medium was replaced with MCDB153 medium containing various final concentrations of extract of N. lappaceum (by weight relative to the total volume of the medium) or without extract (Control) (table 1). The culture medium was replaced then solubilized in an extraction buffer. The amount of involucrin was quantified by ELISA assay. The results obtained are expressed as % relative to the control (n=3) (MEAN: mean; SD: Standard deviation).
Normal, that is to say non-pathological, human keratinocytes were cultured in an MCDB153 medium (Dutscher France) containing 2% of fetal calf serum. After culture for 3 days at 37° C., the growth medium was replaced with MCDB153 medium containing two final concentrations of ellagic acid or of geranin (w/v final medium) or without ellagic acid or without geranin (Control) (table 3). The culture medium was replaced. The amount of involucrin was quantified by ELISA assay. The results obtained are expressed as % relative to the control (n=3).

Row | SMILES | MEAN (% involucrin detected) (1.5 × 10^−3% (w/v medium)) | MEAN (% involucrin detected) (9 × 10^−4% (w/v medium)) | stimulation of involucrin synthesis | MEAN (% involucrin detected) (1.1 × 10^−4% (w/v medium)) | MEAN (% involucrin detected) (1.9 × 10^−4% (w/v medium))
1 | O=C1O[C@H]2[C@@H]3OC(=O)c4cc(O)c(O)c(O)c4-c4c(cc(O)c(O)c4O)C(=O)OC[C@H]2O[C@@H](OC(=O)c2cc(O)c(O)c(O)c2)[C@@H]3OC(=O)c2cc(O)c(O)c3c2[C@@H]2C1=CC(=O)[C@](O)(O3)C2(O)O [Geranin, geranin] | 29% | 78% | Neither ellagic acid nor geranin stimulated involucrin synthesis | – | –
2 | O=c1oc2c(O)c(O)cc3c(=O)oc4c(O)c(O)cc1c4c23 [Ellagic acid, ellagic acid] | – | – | Neither ellagic acid nor geranin stimulated involucrin synthesis | 68% | 32%
